Article PMC7382147, “An effective UFLC–MS/MS method used to study pharmacokinetics of major constituents of Fukeqianjin formula in rat plasma” (Chinese Medicine, 2020)

Columns and labels:
[1] = Long-term stability of QC samples (−20 °C for 20 days); format: physicochemical, rat; conditions: plasma QC
Method: (§1) Aliquots of 100 μL plasma samples were mixed with 10 μL I.S. samples (1 μg/mL, in MeOH), then added with 500 μL ACN, respectively, and vortexed for 5 min, centrifugated at 10,000 rpm for 10 min, the supernatants were transferred into clean vials and dried in a vacuum centrifugal concentrator at 1200 rpm, 37 °C. After that, 100 μL ACN was added and ultrasonic (frequency 40 kHz, power 250 W) extracted for 5 min to dissolve the dry residue, vortexed for 1 min and centrifugated at 10,000 rpm for 5 min, 1 μL of each final supernatant was injected into UFLC–MS/MS for analysis.
(§2) Six replicates of low, medium and high concentrations of quality control (QC) samples were used to verify the stabilities under different conditions including: place at room temperature for 8 h, freeze (− 20 °C) and thaw for three times, and store at − 20 °C for 20 days.

[2] = Freeze–thaw stability of QC samples (−20 °C, three times); format: physicochemical, rat; conditions: plasma QC, freeze (−20 °C) and thaw three times
Method: as §1, §2

[3] = Ordinary stability of QC samples (room temperature for 8 h); format: physicochemical, rat; conditions: plasma QC, room temperature 8 h
Method: as §1, §2

[4] = Pharmacokinetic study in rat plasma after oral administration of FKQJF extract (UFLC–MS/MS); format: in vivo, Sprague-Dawley (SD) rats; conditions: for AUC(0-inf) / AUC(0-t) / Cmax / half-life / MRT last / MRT inf / Tmax: Sprague-Dawley, oral FKQJF extract, single dose 3.2 g/kg, mean ± SD; for MRT last: read-out: MRT0→t; for MRT inf: read-out: MRT0→∞; for Tmax: read-out: Tmax
Method: as §1
An 8050 UFLC–MS/MS system equipped with LC-30A binary pump, a SIL-30AC autosampler, a SPD-M30A PDA detector, a CTO-20AC column oven, and a 8050 triple quadrupole mass spectrometer with an electrospray ionization source (ESI) was applied to detect and quantify FKQJF compounds in plasma samples. Data were acquired and processed with the software LabSolution (Ver. 5.6).
A Kinetex XB-C18 HPLC column (100 × 2.1 mm, 2.6 μm) linked with an equivalent guard column was used for chromatographic separation. The aqueous phase contained 0.2% formic acid was used as mobile phase A, and organic phase ACN as mobile phase B. The gradient elution method using in this program was: 3–5 min, 28–31% B; 5–7 min, 31–34% B; 7–9 min, 34–65% B; 9–10 min, 65–95% B; 10–11.5 min, 95% B. The flow rate of mobile phase, column temperature and autosampler temperature was 0.4 mL/min, 30 °C and 4 °C, respectively. The injection volume of each sample was set as 1 μL. The main MS spectrum parameters were set as follows: the flow rate of drying gas (N2) was 10.0 L/min; the atomized gas was 3.0 L/min and the heating gas flow rate was 10.0 L/min. The main temperatures of interface, desolvation and heat block was 300 °C, 250 °C and 400 °C, respectively. And, the interface and detector voltage were 3 kV and 1.8 kV.
Rats were divided into a blank group and a FKQJF administration group (6 rats for each), and fasted for 24 h. Each rat of the administration group was given FKQJF extract suspension at a single dose of 3.2 g FKQJF/kg body weight through oral administration in parallel. Blood samples (0.25 mL) were gathered from the orbital venous plexus of each rat, with FKQJF group gathered at 14 serial timepoints (6 rats for each) as 0.083 h, 0.16 h, 0.33 h, 0.5 h, 0.75 h, 1.0 h, 1.5 h, 2 h, 3 h, 4 h, 6 h, 8 h, 12 h and 24 h after drug administration. The blood samples were centrifugated at 6000g for 10 min to isolate plasma and stored at − 20 °C for further analysis.
Data were analyzed using the Drug and Statistics (DAS) Software version 2.0 (DAS 2.0, Mathematical Pharmacology Professional Committee of China, Shanghai, China). The non-compartmental mode was applied to obtain the following PK parameters: area under the plasma concentration–time curve from time zero to the time of last quantifiable concentration (AUC0→t) and area under the plasma concentration–time curve to time infinity (AUC0→∞), the elimination half-life (t1/2), mean retention time to last sampling time (MRT0→t) and mean retention time to infinity (MRT0→∞). The maximum plasma concentration (Cmax) and the time to maximum concentration (Tmax) were observed directly from the concentration–time (C–T) curves and measured data. All data are presented as mean ± SD.

[5] = oral FKQJF extract 3.2 g/kg, post dose

| SMILES | Long-term stability Mean ([1]; spiked 50 ng/mL) [%] | Long-term stability Mean ([1]; spiked 250 ng/mL) [%] | Long-term stability Mean ([1]; spiked 500 ng/mL) [%] | Freeze–thaw stability Mean ([2]; spiked 50 ng/mL) [%] | Freeze–thaw stability Mean ([2]; spiked 250 ng/mL) [%] | Freeze–thaw stability Mean ([2]; spiked 500 ng/mL) [%] | Ordinary stability Mean ([3]; spiked 50 ng/mL) [%] | Ordinary stability Mean ([3]; spiked 250 ng/mL) [%] | Ordinary stability Mean ([3]; spiked 500 ng/mL) [%] | AUC(0-inf) [4] [ng·h/mL] | AUC(0-t) [4] [ng·h/mL] | Cmax [4] [ng/mL] | half-life [4] [h] | MRT last [4] [h] | MRT inf [4] [h] | Tmax [4] [h] | shape of the plasma concentration–time curve ([4]; oral FKQJF extract 3.2 g/kg) | Long-term stability Mean ([1]; spiked 5 ng/mL) [%] | Long-term stability Mean ([1]; spiked 100 ng/mL) [%] | Long-term stability Mean ([1]; spiked 200 ng/mL) [%] | also measured |
| --- | --- | --- | --- | --- | --- | --- | --- | --- | --- | --- | --- | --- | --- | --- | --- | --- | --- | --- | --- | --- | --- |
| O=C(O)c1ccccc1O [Analyte 8, salicylic acid] | 109.80 | 114.13 | 87.97 | 80.11 | 102.50 | 88.21 | 95.42 | 108.42 | 103.60 | 2140 ± 168 | 1800 ± 155 | 433 ± 53.1 | 2.7 ± 0.54 | 2.88 ± 0.15 | 4.31 ± 0.67 | 1.67 ± 0.29 | double-peaks | – | – | – | – |
| COc1cc2c(cc1O)CC[n+]1cc3c(OC)c(OC)ccc3cc1-2 [Analyte 9, jatrorrhizine] | – | – | – | – | – | – | – | – | – | 2550 ± 277 | 1090 ± 110 | 270 ± 24 | 9.65 ± 4.91 | 8.96 ± 0.4 | 10.5 ± 4.72 | 1.83 ± 0.29 | – | – | – | – | Long-term stability Mean ([1]; spiked 25 ng/mL): 80.63%; Long-term stability Mean ([1]; spiked 75 ng/mL): 91.97%; Long-term stability Mean ([1]; spiked 150 ng/mL): 98.06%; Freeze–thaw stability Mean ([2]; spiked 25 ng/mL): 86.77%; Freeze–thaw stability Mean ([2]; spiked 150 ng/mL): 113.07%; Ordinary stability Mean ([3]; spiked 25 ng/mL): 104.79%; Ordinary stability Mean ([3]; spiked 75 ng/mL): 93.01%; Ordinary stability Mean ([3]; spiked 150 ng/mL): 92.51% |
| COc1ccc(-c2coc3cc(O[C@@H]4O[C@H](CO)[C@@H](O)[C@H](O)[C@H]4O)ccc3c2=O)cc1 [Analyte 10, ononin] | 95.03 | 81.88 | 107.95 | 118.81 | 102.95 | 81.68 | 95.59 | 82.57 | 103.90 | 375 ± 153 | 370 ± 156 | 192 ± 32 | 1.64 ± 0.52 | 2.54 ± 1.12 | 3.13 ± 1.66 | 1.33 ± 0.58 | double-peaks | – | – | – | – |
| COc1cc2c(cc1OC)-c1cc3ccc(OC)c(OC)c3c[n+]1CC2 [Analyte 11, palmatine] | – | – | – | – | – | – | – | – | – | 1640 ± 155 | 691 ± 93.3 | 134 ± 31.8 | 9.16 ± 2.09 | 11 ± 0.99 | 14.2 ± 8.89 | 1.67 ± 0.29 | – | 87.02 | 101.38 | 89.65 | Freeze–thaw stability Mean ([2]; spiked 5 ng/mL): 94.51%; Freeze–thaw stability Mean ([2]; spiked 100 ng/mL): 98.74%; Ordinary stability Mean ([3]; spiked 5 ng/mL): 92.36%; Ordinary stability Mean ([3]; spiked 100 ng/mL): 81.64% |
| C=C1CC[C@@H]2[C@](C)(CO)[C@H](O)CC[C@@]2(C)[C@@H]1C/C=C1/C(=O)OC[C@H]1O [Analyte 12, andrographolide] | – | – | – | – | – | – | – | – | – | 480 ± 71.9 | 442 ± 59.5 | 186 ± 19 | 1.79 ± 0.2 | 2.45 ± 0.19 | 3.1 ± 0.33 | 1 ± 0.43 | double-peaks | – | – | – | Long-term stability Mean ([1]; spiked 60 ng/mL): 115.89%; Long-term stability Mean ([1]; spiked 300 ng/mL): 94.37%; Long-term stability Mean ([1]; spiked 600 ng/mL): 96.64%; Freeze–thaw stability Mean ([2]; spiked 60 ng/mL): 84.52%; Freeze–thaw stability Mean ([2]; spiked 300 ng/mL): 86.83%; Freeze–thaw stability Mean ([2]; spiked 600 ng/mL): 93.19%; Ordinary stability Mean ([3]; spiked 60 ng/mL): 115.56%; Ordinary stability Mean ([3]; spiked 300 ng/mL): 107.50%; Ordinary stability Mean ([3]; spiked 600 ng/mL): 85.93%; time of first peak of the concentration–time curve [4, 5]: 0 to 1 h; time of second peak of the concentration–time curve [4, 5]: 1.5 to 3 h |
| COc1ccc2cc3[n+](cc2c1OC)CCc1cc2c(cc1-3)OCO2 [Analyte 13, berberine] | – | – | – | – | – | – | – | – | – | 5630 ± 2430 | 3800 ± 171 | 619 ± 84.6 | 38.8 ± 53.2 | 8.04 ± 0.88 | 39 ± 46.5 | 8 | double-peaks | 102.75 | 81.78 | 114.48 | Freeze–thaw stability Mean ([2]; spiked 5 ng/mL): 97.72%; Freeze–thaw stability Mean ([2]; spiked 100 ng/mL): 110.44%; Freeze–thaw stability Mean ([2]; spiked 200 ng/mL): 104.87%; Ordinary stability Mean ([3]; spiked 5 ng/mL): 84.57%; Ordinary stability Mean ([3]; spiked 100 ng/mL): 103.56%; Ordinary stability Mean ([3]; spiked 200 ng/mL): 113.97% |
